# From ChEMBL document CHEMBL1201862, “PubChem BioAssay data set” (2004)
#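 Protocol summary: plate cells (96-well), add compound at 5 concentrations, incubate 48 h, interpolate endpoints linearly. The concentration for 50% growth inhibition is given as GI50.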 Active and inactive are the calls of the source. No stated cut-off is given here; in the data, active = GI50 up to about 1.1 µM and inactive = higher.
# Columns and labels:
# Experiment in all cases: NCI anticancer screen, dose series, 48 h
# CAKI-1 = tested on: CAKI-1
# OVCAR-8 = tested on: OVCAR-8
# MDA-MB-231 = tested on: MDA-MB-231
# K562 = tested on: K562
# PC-3 = tested on: PC-3
# MOLT-4 = tested on: MOLT-4
# HCT-15 = tested on: HCT-15
# CCRF-CEM = tested on: CCRF-CEM
# SNB-19 = tested on: SNB-19
# A498 = tested on: A498
# T47D = tested on: T47D
# NCI-H460 = tested on: NCI-H460
# MDA-MB-435 = tested on: MDA-MB-435
# TK-10 = tested on: TK-10
# SF-295 = tested on: SF-295
# RPMI-8226 = tested on: RPMI-8226
# SK-MEL-28 = tested on: SK-MEL-28
# NCI/ADR-RES = tested on: NCI/ADR-RES
# UACC-257 = tested on: UACC-257
# SR = tested on: SR
SMILES,GI50 (CAKI-1),GI50 (OVCAR-8),GI50 (MDA-MB-231),GI50 (K562),GI50 (PC-3),GI50 (MOLT-4),GI50 (HCT-15) [µM],GI50 (CCRF-CEM),GI50 (SNB-19),GI50 (A498),GI50 (T47D),GI50 (NCI-H460),GI50 (MDA-MB-435),GI50 (TK-10),GI50 (SF-295),GI50 (RPMI-8226),GI50 (SK-MEL-28),GI50 (NCI/ADR-RES),GI50 (UACC-257),GI50 (SR)
Clc1ccc(CSCc2ccc(Cl)cc2Cl)c(Cl)c1,86.1 µM (inactive),> 100 µM (inactive),> 100 µM (inactive),57.5 µM (inactive),44.1 µM (inactive),19.4 µM (inactive),32.2,22.2 µM (inactive),> 100 µM (inactive),40.2 µM (inactive),22.5 µM (inactive),95.9 µM (inactive),41 µM (inactive),> 100 µM (inactive),37.3 µM (inactive),28.1 µM (inactive),79.6 µM (inactive),> 100 µM (inactive),25.6 µM (inactive),–
COc1ccc(-n2sc3ncc([N+](=O)[O-])cc3c2=O)cc1,–,> 100 µM (inactive),> 100 µM (inactive),–,> 100 µM (inactive),> 100 µM (inactive),> 100,96.4 µM (inactive),> 100 µM (inactive),–,> 100 µM (inactive),> 100 µM (inactive),> 100 µM (inactive),> 100 µM (inactive),> 100 µM (inactive),> 100 µM (inactive),> 100 µM (inactive),> 100 µM (inactive),> 100 µM (inactive),> 100 µM (inactive)
CCOC(=O)c1nnsc1NC(=O)NN,> 100 µM (inactive),> 100 µM (inactive),25.4 µM (inactive),41.1 µM (inactive),> 100 µM (inactive),> 10 µM (inactive),> 100,> 100 µM (inactive),> 100 µM (inactive),> 100 µM (inactive),> 100 µM (inactive),> 100 µM (inactive),> 100 µM (inactive),> 100 µM (inactive),> 100 µM (inactive),> 100 µM (inactive),> 100 µM (inactive),> 100 µM (inactive),> 100 µM (inactive),–
O=C1CC2OCC=C3CN4CCC56c7ccccc7N1C5C2C3CC46O (stereo not drawn),97.3 µM (inactive),> 100 µM (inactive),> 100 µM (inactive),> 100 µM (inactive),> 100 µM (inactive),> 100 µM (inactive),> 100,> 100 µM (inactive),> 100 µM (inactive),48.1 µM (inactive),> 100 µM (inactive),> 100 µM (inactive),> 100 µM (inactive),> 100 µM (inactive),> 100 µM (inactive),> 100 µM (inactive),> 100 µM (inactive),> 100 µM (inactive),> 100 µM (inactive),–
Cc1cc(C)c2c(n1)S(=O)(=O)N(CCCN1CCN(c3cccc(Cl)c3)CC1)C(C(=O)c1ccc(Br)cc1)=C2O,6.9 µM (inactive),23.8 µM (inactive),37.7 µM (inactive),27.8 µM (inactive),22 µM (inactive),10.6 µM (inactive),16.7,19.9 µM (inactive),20.9 µM (inactive),34.9 µM (inactive),33.4 µM (inactive),8.91 µM (inactive),18.2 µM (inactive),17.7 µM (inactive),18.9 µM (inactive),–,28.2 µM (inactive),18.8 µM (inactive),15.3 µM (inactive),13.4 µM (inactive)
